Measured values taken from ChEMBL document CHEMBL4138123, “Design, synthesis and biological evaluation of novel pyrazolochalcones as potential modulators of PI3K/Akt/mTOR pathway and inducers of apoptosis in breast cancer cells” (Eur J Med Chem, 2017).
Activity calls are given as the source filed them. No cut-off for these calls is given here.

Experiments:
[1] = test system: LOX IMVI; experiment: Cytotoxicity against human LOXIMVI cells assessed as cell growth at 0.01 uM after 48 hrs by sulforhodamine B assay relative to control; type: functional; details: read-out: Activity
[2] = test system: CAKI-1; experiment: Cytotoxicity against human Caki1 cells assessed as cell growth at 10 uM after 48 hrs by sulforhodamine B assay relative to control; type: functional; details: CAKI-1, 48 h, read-out: Activity
[3] = test system: MCF7; experiment: Downregulation of Akt1 mRNA expression in human MCF7 cells at 2 uM after 48 hrs by qRT-PCR analysis; type: functional, cell-based
[4] = test system: MCF7; experiment: Upregulation of PTEN mRNA expression in human MCF7 cells at 2 uM after 48 hrs by qRT-PCR analysis; type: functional, cell-based
[5] = test system: CAKI-1; experiment: Cytotoxicity against human Caki1 cells assessed as cell growth at 1 uM after 48 hrs by sulforhodamine B assay relative to control; type: functional; details: CAKI-1, 48 h, read-out: Activity
[6] = test system: LOX IMVI; experiment: Cytotoxicity against human LOXIMVI cells assessed as cell growth at 10 uM after 48 hrs by sulforhodamine B assay relative to control; type: functional; details: read-out: Activity
[7] = test system: MCF7; experiment: Inhibition of PI3K in human MCF7 cells assessed as increase in GSK-3beta phosphorylation at Ser9 at 2 uM after 24 hrs by Western blot analysis; type: cell-based
[8] = test system: HOP-92; experiment: Cytotoxicity against human HOP92 cells assessed as cell growth at 0.01 uM after 48 hrs by sulforhodamine B assay relative to control; type: functional; details: HOP-92, 48 h, read-out: Activity
[9] = test system: LOX IMVI; experiment: Cytotoxicity against human LOXIMVI cells assessed as cell growth at 0.1 uM after 48 hrs by sulforhodamine B assay relative to control; type: functional; details: read-out: Activity
[10] = test system: MCF7; experiment: Upregulation of BAX mRNA expression in human MCF7 cells at 2 uM after 48 hrs by qRT-PCR analysis; type: functional, cell-based
[11] = test system: HOP-92; experiment: Cytotoxicity against human HOP92 cells assessed as cell growth at 1 uM after 48 hrs by sulforhodamine B assay relative to control; type: functional; details: HOP-92, 48 h, read-out: Activity
[12] = test system: HOP-92; experiment: Cytotoxicity against human HOP92 cells assessed as cell growth at 0.1 uM after 48 hrs by sulforhodamine B assay relative to control; type: functional; details: HOP-92, 48 h, read-out: Activity
[13] = test system: HOP-92; experiment: Cytotoxicity against human HOP92 cells assessed as growth inhibition after 48 hrs by sulforhodamine B assay; type: functional; details: HOP-92, 48 h; for CC50: read-out: LC50 (the source's name)
[14] = test system: SK-MEL-2; experiment: Cytotoxicity against human SK-MEL-2 cells assessed as cell growth at 10 uM after 48 hrs by sulforhodamine B assay relative to control; type: functional; details: SK-MEL-2, 48 h, read-out: Activity
[15] = test system: LOX IMVI; experiment: Cytotoxicity against human LOXIMVI cells assessed as cell growth at 1 uM after 48 hrs by sulforhodamine B assay relative to control; type: functional; details: read-out: Activity
[16] = test system: SK-MEL-2; experiment: Cytotoxicity against human SK-MEL-2 cells assessed as cell growth at 0.01 uM after 48 hrs by sulforhodamine B assay relative to control; type: functional; details: SK-MEL-2, 48 h, read-out: Activity
[17] = test system: SK-MEL-2; experiment: Cytotoxicity against human SK-MEL-2 cells assessed as cell growth at 100 uM after 48 hrs by sulforhodamine B assay relative to control; type: functional; details: SK-MEL-2, 48 h, read-out: Activity
[18] = test system: HOP-92; experiment: Cytotoxicity against human HOP92 cells assessed as cell growth at 100 uM after 48 hrs by sulforhodamine B assay relative to control; type: functional; details: HOP-92, 48 h, read-out: Activity
[19] = test system: SK-MEL-2; experiment: Cytotoxicity against human SK-MEL-2 cells assessed as cell growth at 0.1 uM after 48 hrs by sulforhodamine B assay relative to control; type: functional; details: SK-MEL-2, 48 h, read-out: Activity
[20] = test system: MCF7; experiment: Downregulation of Akt protein expression in human MCF7 cells at 2 uM after 24 hrs by Western blot analysis; type: functional, cell-based
[21] = test system: HOP-92; experiment: Cytotoxicity against human HOP92 cells assessed as cell growth at 10 uM after 48 hrs by sulforhodamine B assay relative to control; type: functional; details: HOP-92, 48 h, read-out: Activity
[22] = test system: CAKI-1; experiment: Cytotoxicity against human Caki1 cells assessed as cell growth at 0.1 uM after 48 hrs by sulforhodamine B assay relative to control; type: functional; details: CAKI-1, 48 h, read-out: Activity
[23] = test system: CAKI-1; experiment: Cytotoxicity against human Caki1 cells assessed as cell growth at 100 uM after 48 hrs by sulforhodamine B assay relative to control; type: functional; details: CAKI-1, 48 h, read-out: Activity
[24] = test system: MCF7; experiment: Downregulation of Akt protein expression in human MCF7 cells at 2 uM after 48 hrs by Alexa/DAPI staining-based immunofluorescence analysis; type: functional, cell-based
[25] = test system: MCF7; experiment: Downregulation of PI3K mRNA expression in human MCF7 cells at 2 uM after 48 hrs by qRT-PCR analysis; type: functional, cell-based
[26] = test system: LOX IMVI; experiment: Cytotoxicity against human LOXIMVI cells assessed as cell growth at 100 uM after 48 hrs by sulforhodamine B assay relative to control; type: functional; details: read-out: Activity
[27] = test system: CAKI-1; experiment: Cytotoxicity against human Caki1 cells assessed as cell growth at 0.01 uM after 48 hrs by sulforhodamine B assay relative to control; type: functional; details: CAKI-1, 48 h, read-out: Activity
[28] = test system: CAKI-1; experiment: Cytotoxicity against human Caki1 cells assessed as growth inhibition after 48 hrs by sulforhodamine B assay; type: functional; details: CAKI-1, 48 h
[29] = test system: SK-MEL-2; experiment: Cytotoxicity against human SK-MEL-2 cells assessed as cell growth at 1 uM after 48 hrs by sulforhodamine B assay relative to control; type: functional; details: SK-MEL-2, 48 h, read-out: Activity
[30] = test system: MCF7; experiment: Induction of intrinsic apoptosis in human MCF7 cells assessed as effect on mitochondrial membrane depolarization at 2 uM after 18 hrs by DiOC6 staining-based FACS analysis (reference value: 2%); type: functional
[31] = test system: SNB-75; experiment: Cytotoxicity against human SNB75 cells assessed as cell growth at 1 uM after 48 hrs by sulforhodamine B assay relative to control; type: functional; details: SNB-75, 48 h, read-out: Activity
[32] = test system: SNB-75; experiment: Cytotoxicity against human SNB75 cells assessed as cell growth at 10 uM after 48 hrs by sulforhodamine B assay relative to control; type: functional; details: SNB-75, 48 h, read-out: Activity
[33] = test system: SF-295; experiment: Cytotoxicity against human SF295 cells assessed as cell growth at 0.01 uM after 48 hrs by sulforhodamine B assay relative to control; type: functional; details: SF-295, 48 h, read-out: Activity
[34] = test system: SF-295; experiment: Cytotoxicity against human SF295 cells assessed as cell growth at 10 uM after 48 hrs by sulforhodamine B assay relative to control; type: functional; details: SF-295, 48 h, read-out: Activity
[35] = test system: SNB-75; experiment: Cytotoxicity against human SNB75 cells assessed as cell growth at 0.01 uM after 48 hrs by sulforhodamine B assay relative to control; type: functional; details: SNB-75, 48 h, read-out: Activity
[36] = test system: SF-295; experiment: Cytotoxicity against human SF295 cells assessed as cell growth at 100 uM after 48 hrs by sulforhodamine B assay relative to control; type: functional; details: SF-295, 48 h, read-out: Activity
[37] = test system: SNB-75; experiment: Cytotoxicity against human SNB75 cells assessed as cell growth at 100 uM after 48 hrs by sulforhodamine B assay relative to control; type: functional; details: SNB-75, 48 h, read-out: Activity
[38] = test system: SF-295; experiment: Cytotoxicity against human SF295 cells assessed as cell growth at 0.1 uM after 48 hrs by sulforhodamine B assay relative to control; type: functional; details: SF-295, 48 h, read-out: Activity
[39] = test system: SF-295; experiment: Cytotoxicity against human SF295 cells assessed as cell growth at 1 uM after 48 hrs by sulforhodamine B assay relative to control; type: functional; details: SF-295, 48 h, read-out: Activity
[40] = test system: SNB-75; experiment: Cytotoxicity against human SNB75 cells assessed as cell growth at 0.1 uM after 48 hrs by sulforhodamine B assay relative to control; type: functional; details: SNB-75, 48 h, read-out: Activity
[41] = test system: SF-295; experiment: Cytotoxicity against human SF295 cells assessed as growth inhibition after 48 hrs by sulforhodamine B assay; type: functional; details: SF-295, 48 h
[42] = test system: SNB-75; experiment: Cytotoxicity against human SNB75 cells assessed as growth inhibition after 48 hrs by sulforhodamine B assay; type: functional; details: SNB-75, 48 h

COc1ccc(C(=O)/C=C/c2cc(-c3cc(OC)c(OC)c(OC)c3)n[nH]2)cc1
growth at 0.01 µM [1]: 95%
growth at 10 µM [2]: -17%
Activity [3]: Active
Activity [4]: Active
growth at 1 µM [5]: 89%
growth at 10 µM [6]: -92%
Activity call (increase in GSK-3beta Ser9 phosphorylation) [7]: Active
growth at 0.01 µM [8]: 87%
growth at 0.1 µM [9]: 93%
Activity [10]: Active
growth at 1 µM [11]: 53%
growth at 0.1 µM [12]: 83%
TGI [13]: 3.04 µM
growth at 10 µM [14]: 21%
growth at 1 µM [15]: 85%
growth at 0.01 µM [16]: 92%
growth at 100 µM [17]: -50%
growth at 100 µM [18]: -36%
growth at 0.1 µM [19]: 90%
Activity [20]: Active
growth at 10 µM [21]: -56%
growth at 0.1 µM [22]: 93%
growth at 100 µM [23]: 1%
Activity [24]: Active
Activity [25]: Active
growth at 100 µM [26]: -32%
growth at 0.01 µM [27]: 95%
LC50 [28]: > 100 µM
growth at 1 µM [29]: 97%

COc1cc(C(=O)/C=C/c2cc(-c3cc(OC)c(OC)c(OC)c3)n[nH]2)cc(OC)c1OC
growth at 0.01 µM [1]: 102%
growth at 10 µM [2]: 4%
Activity [3]: Active
Activity [4]: Active
growth at 1 µM [5]: 82%
growth at 10 µM [6]: -95%
Activity call (increase in GSK-3beta Ser9 phosphorylation) [7]: Active
growth at 0.01 µM [8]: 86%
growth at 0.1 µM [9]: 101%
Activity [10]: Active
growth at 1 µM [11]: 1%
growth at 0.1 µM [12]: 68%
TGI [13]: 1.02 µM
CC50 [13]: 5.54 µM
growth at 10 µM [14]: -63%
growth at 1 µM [15]: 82%
growth at 0.01 µM [16]: 104%
growth at 100 µM [17]: -96%
growth at 100 µM [18]: -95%
growth at 0.1 µM [19]: 111%
Activity [20]: Active
growth at 10 µM [21]: -67%
growth at 0.1 µM [22]: 89%
growth at 100 µM [23]: -94%
Activity [24]: Active
Activity [25]: Active
growth at 100 µM [26]: -95%
growth at 0.01 µM [27]: 91%
Activity [30]: 1%
LC50 [28]: 35.5 µM
TGI [28]: 10.9 µM
growth at 1 µM [29]: 97%

COc1ccc(-c2cc(/C=C/C(=O)c3ccc(N)cc3)[nH]n2)cc1OC
growth at 0.01 µM [1]: 100%
growth at 1 µM [31]: 75%
growth at 10 µM [32]: 17%
growth at 10 µM [6]: -66%
growth at 0.01 µM [8]: 86%
growth at 0.01 µM [33]: 83%
growth at 0.1 µM [9]: 102%
growth at 1 µM [11]: 87%
growth at 0.1 µM [12]: 87%
growth at 10 µM [34]: 20%
GI50 [13]: 1.49 µM
TGI [13]: 30.9 µM
CC50 [13]: 63.9 µM
growth at 0.01 µM [35]: 81%
growth at 10 µM [14]: 46%
growth at 1 µM [15]: 96%
growth at 100 µM [36]: -91%
growth at 0.01 µM [16]: 103%
growth at 100 µM [17]: -86%
growth at 100 µM [18]: -81%
growth at 100 µM [37]: -97%
growth at 0.1 µM [38]: 90%
growth at 0.1 µM [19]: 109%
growth at 10 µM [21]: 77%
growth at 1 µM [39]: 87%
growth at 0.1 µM [40]: 92%
GI50 [41]: 3.58 µM
LC50 [41]: 42.9 µM
TGI [41]: 15.2 µM
GI50 [42]: 2.74 µM
LC50 (concentration killing 50% of cells) [42]: 39 µM
TGI [42]: 14.2 µM
growth at 100 µM [26]: -81%
growth at 1 µM [29]: 102%
